The results in this text go back to patent US20250042922A1, “KRAS MODULATING COMPOUNDS” (priority 2023, published 2025).

Assay [1] concerns cellular pERK in Kuramochi (WT KRAS) cells. As to the kind of experiment: Cell based pERK assay, Kuramochi. To be noted: Kuramochi (WT KRAS), 2 hours incubation, HTRF phospho-ERK1/2; read-out: Kuramochi pERK EC50. The procedure:
(§1) Compounds were tested in a 384-well assay format for their ability to inhibit cellular pERK in Kuramochi (WT KRAS), MIA-PaCa-2 (KRAS-G12C), ASPC-1 (KRAS G12D), and NCI-H441 (KRAS-G12V) cell-lines. Compounds were serially diluted (1:3) in DMSO. On day −1, 80 μL of cells were plated per well in the 384 well tissue-culture plates (Greiner: Cat #781080) to seed 5000 cells per wells of AsPC-1 or 7500 cells of MIA-PaCa-2, NCI-H441, and Kuramochi cell lines in RPMI (Corning: Cat #10-040-CM) with 10% fetal bovine serum (FBS) (HyClone: Cat #SH30071-03) and 1× penicillin-streptomycin-glutamate (PSG) (Corning: Cat #30-009-CI) for […] and Kuramochi cell lines and DMEM (Corning: Cat #15-018-CM) with 10% FBS and 1×PSG for MIA-PaCa-2 cell line. The plates were then incubated overnight at 37° C. and 5% CO2. On day 0, 400 nL of compound/well was added into the cell plates and mixed 5 times by pipetting using a Beckmann Biomek FX. The cell plates were then incubated for 2 hours at 37° C. and 5% CO2. HTRF Advanced Phospho-ERK1/2 (THR202/TYR204) Detection Kits (PerkinElmer: Cat #64AERPEG) were used to prepare the lysis and detection solution according to manufacturer protocol. Following the 2 hour incubation, 70 μL of medium was aspirated from the plates and 10 uL of lysis and detection solution was added to the plates using a Biotek EL406 washer and dispenser. Plates were sealed and stored overnight at room temperature. HTRF ratio (665 nm/615 nm) was read by Envision multimode reader (PerkinElmer) the next day. The TR-FRET ratios were normalized to a positive (saturating concentration of known inhibitor) and negative (DMSO) control and plotted against the log of compound concentration.

Assay [2] has as its system cellular pERK in MIA-PaCa-2 (KRAS-G12C) cells. Briefly: Cell based pERK assay, MIA-PaCa-2. The following applies: Homo sapiens; MIA-PaCa-2 (KRAS-G12C), 2 hours incubation, HTRF phospho-ERK1/2; read-out: MIAPaCa2 pERK EC50. The procedure: as §1
Background: TR-FRET usually uses a lanthanide donor and a delayed reading to cut background.

Assay [3] has as its system cellular pERK in NCI-H441 (KRAS-G12V) cells. As to the kind of experiment: Cell based pERK assay, NCI-H441. To be noted: Homo sapiens; NCI-H441 (KRAS-G12V), 2 hours incubation, HTRF phospho-ERK1/2; read-out: H441 PERK EC50. The protocol: as §1
The subject of assay [4] is cellular pERK in ASPC-1 (KRAS G12D) cells. Briefly: Cell based pERK assay, ASPC-1. To be noted: Homo sapiens, ASPC1; ASPC-1 (KRAS G12D), 2 hours incubation, HTRF phospho-ERK1/2; read-out: AsPC1 pERK EC50. The procedure: as §1

A word on the EC50: it is the concentration needed to bring the measured effect to its halfway point.

For the molecule `C#Cc1c(F)ccc2cc(O)cc(-c3nc4c5c(nc(OC[C@@]67CCCN6C[C@H](F)C7)nc5c3F)N3C[C@@]5(F)CC[C@H](N5)[C@H]3CC4)c12` [Example 1-1, 4-((5aR,6S,9S)-1,9-difluoro-12-(((2R,7aS)-2-fluorotetrahydro-1H-pyrrolizin-7a(5H)-yl)methoxy)-4,5,5a,6,7,8,9,10-octahydro-3,10a,11,13,14-pentaaza-6,9-methanonaphtho[1,8-ab]heptalen-2-yl)-5-ethynyl-6-fluoronaphthalen-2-ol], the concentration for a half-maximal effect (EC50) stood at 2.68 nM in assay [1], 3.27 nM in assay [2], 4.93 nM in assay [3] and 38.2 nM in assay [4].
`CCc1c(F)ccc2cc(O)cc(-c3nc4c5c(nc(OC[C@@]67CCCN6C[C@H](F)C7)nc5c3F)N3C[C@@]5(F)CC[C@H](N5)[C@H]3CC4)c12` [Example 2-1, 4-((5aR,6S,9S)-1,9-difluoro-12-(((2R,7aS)-2-fluorotetrahydro-1H-pyrrolizin-7a(5H)-yl)methoxy)-4,5,5a,6,7,8,9,10-octahydro-3,10a,11,13,14-pentaaza-6,9-methanonaphtho[1,8-ab]heptalen-2-yl)-5-ethyl-6-fluoronaphthalen-2-ol]: the EC50 in assay [1] was determined as 1.41 nM; in assay [2], 3.01 nM; in assay [3], 4.44 nM; in assay [4] it was 55.5 nM.
The like results for `C#Cc1c(F)ccc2cc(O)cc(-c3nc4c5c(nc(OC[C@@]67CCCN6C[C@H](F)C7)nc5c3F)N3C[C@@]5(F)CC[C@](F)(N5)[C@H]3CC4)c12` [Example 3-1, 5-ethynyl-6-fluoro-4-((5aR,6R,9S)-1,6,9-trifluoro-12-(((2R,7aS)-2-fluorotetrahydro-1H-pyrrolizin-7a(5H)-yl)methoxy)-4,5,5a,6,7,8,9,10-octahydro-3,10a,11,13,14-pentaaza-6,9-methanonaphtho[1,8-ab]heptalen-2-yl)naphthalen-2-ol] were, in that order, 1.13 nM, 0.89 nM, 1.25 nM and 3.27 nM.
The like results for `C#Cc1c(F)ccc2cc(O)cc(-c3nc4c5c(nc(OC[C@@]67CCCN6C[C@H](F)C7)nc5c3F)N3C[C@@]5(F)CC[C@](F)(N5)[C@H]3CCC4)c12` [Example 4-1, 5-ethynyl-6-fluoro-4-((6aR,7R,10S)-1,7,10-trifluoro-13-(((2R,7aS)-2-fluorotetrahydro-1H-pyrrolizin-7a(5H)-yl)methoxy)-5,6,6a,7,8,9,10,11-octahydro-4H-3,11a,12,14,15-pentaaza-7,10-methanocyclohepta[4,5]cycloocta[1,2,3-de]naphthalen-2-yl)naphthalen-2-ol] were, in that order, 1.4 nM, 0.49 nM, 0.17 nM and 1.34 nM.
The like results for `C#Cc1c(F)ccc2cc(N)cc(-c3nc4c5c(nc(OCC67CCCN6CCC7)nc5c3F)N3C[C@@]5(F)CC[C@](F)(N5)[C@H]3CCC4)c12` [Example 4-6, 5-ethynyl-6-fluoro-4-((6aR,7R,10S)-1,7,10-trifluoro-13-((tetrahydro-1H-pyrrolizin-7a(5H)-yl)methoxy)-5,6,6a,7,8,9,10,11-octahydro-4H-3,11a,12,14,15-pentaaza-7,10-methanocyclohepta[4,5]cycloocta[1,2,3-de]naphthalen-2-yl)naphthalen-2-amine] were, in that order, 1.98 nM, 1.35 nM, 6.45 nM and 30.9 nM.
`C#Cc1c(F)ccc2cc(O)cc(-c3nc4c5c(nc(OCC67CCCN6CCC7)nc5c3F)N3C[C@@]5(F)CC[C@](F)(N5)[C@@H]3[C@@H](C)C4)c12` [Example 4-10, 5-ethynyl-6-fluoro-4-((5S,5aS,6R,9S)-1,6,9-trifluoro-5-methyl-12-((tetrahydro-1H-pyrrolizin-7a(5H)-yl)methoxy)-4,5,5a,6,7,8,9,10-octahydro-3,10a,11,13,14-pentaaza-6,9-methanonaphtho[1,8-ab]heptalen-2-yl)naphthalen-2-ol]: the EC50 in assay [1] was 11.6 nM; in assay [2] it was 0.243 nM; in assay [3], 3.2 nM; in assay [4] it was 5.93 nM.
